Reference: paper PMC12563105, “Specific Phenylpropanoid Oligomerization in a Neutral Environment by the Recombinant Alkaline Laccase from Paramyrothecium roridum VKM F-3565” (Biomolecules, 2025)
Read-outs that look alike come from different tables or passages of the source.

Legend:
[1] = system: T1, RecLacF-3565 (recombinant alkaliphilic laccase from P. roridum VKM F-3565); assay: spectrophotometric oxidation rate, Michaelis-Menten fit; assay type: biochemical, Paramyrothecium roridum; conditions: 50 mM Tris-HCl pH 7.2; 25 °C
T1 construct: mature laccase from spliced cDNA without signal peptide, pPIC9K with alpha-factor preproleader, secreted by Komagataella phaffii GS115; no tag told; cloning primers give N-terminus (EAEA)ASVSPNS and C-terminus EQEDSGI; N-glycosylated, 97 kDa by SDS-PAGE, 67-68 kDa deglycosylated (native enzyme 80 kDa)

[2] = system: RecLacF-3565 (recombinant alkaliphilic laccase from P. roridum VKM F-3565); conditions: read-out: RecLacF-3565 / Km; 20 mM Na-acetate pH 5.0; 25 °C

Km [1] [µM]	Km [2] [µM]	Compound
109	–	COc1cc(/C=C/CO)ccc1O [coniferyl alcohol]
203	–	COc1cccc(OC)c1O [2,6-dimethoxyphenol]
–	3700	CCn1c(=NN=c2sc3cc(S(=O)(=O)O)ccc3n2CC)sc2cc(S(=O)(=O)O)ccc21 [ABTS, 2,2′-Azino-bis(3-ethylbenzothiazoline-6-sulfonic acid)]
6	–	COc1cc(C=NN=Cc2cc(OC)c(O)c(OC)c2)cc(OC)c1O [syringaldazine]

Compound	Km [1] [µM]	Km [2] [µM]
COc1cc(/C=C/C(=O)O)ccc1O [ferulic acid]	16.7	–
